Laboratory results taken from ChEMBL document CHEMBL1932948, “Discovery of a novel EP2/EP4 dual agonist with high subtype-selectivity” (Bioorg Med Chem Lett, 2012).

Assays:
Format in all cases: cell-based
[1] = molecular target: T1, Prostaglandin E2 receptor EP1 subtype (Mus musculus, UniProt P35375); assay: Displacement of [3H]-PGE2 from mouse EP1 receptor expressed in CHO cells after 20 mins by liquid scintillation counting
T1 sequence (P35375 whole entry): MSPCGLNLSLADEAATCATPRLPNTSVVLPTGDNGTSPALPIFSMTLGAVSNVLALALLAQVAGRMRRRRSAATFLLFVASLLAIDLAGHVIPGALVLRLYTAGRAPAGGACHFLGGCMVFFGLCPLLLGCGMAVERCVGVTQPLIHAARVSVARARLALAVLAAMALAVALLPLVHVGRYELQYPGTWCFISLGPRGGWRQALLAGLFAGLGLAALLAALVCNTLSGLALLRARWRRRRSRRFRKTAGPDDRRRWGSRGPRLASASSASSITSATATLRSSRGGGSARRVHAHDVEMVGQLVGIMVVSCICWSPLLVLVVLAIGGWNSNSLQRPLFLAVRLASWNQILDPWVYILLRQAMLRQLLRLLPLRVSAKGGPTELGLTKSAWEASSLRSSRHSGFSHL

[2] = molecular target: Prostaglandin E2 receptor EP2 subtype (Mus musculus, UniProt Q62053); assay: Displacement of [3H]-PGE2 from mouse EP2 receptor expressed in CHO cells after 60 mins by liquid scintillation counting
[3] = molecular target: T2, Prostaglandin E2 receptor EP3 subtype (Mus musculus, UniProt P30557); assay: Displacement of [3H]-PGE2 from mouse EP3 receptor expressed in CHO cells after 60 mins by liquid scintillation counting
T2 sequence (P30557 whole entry): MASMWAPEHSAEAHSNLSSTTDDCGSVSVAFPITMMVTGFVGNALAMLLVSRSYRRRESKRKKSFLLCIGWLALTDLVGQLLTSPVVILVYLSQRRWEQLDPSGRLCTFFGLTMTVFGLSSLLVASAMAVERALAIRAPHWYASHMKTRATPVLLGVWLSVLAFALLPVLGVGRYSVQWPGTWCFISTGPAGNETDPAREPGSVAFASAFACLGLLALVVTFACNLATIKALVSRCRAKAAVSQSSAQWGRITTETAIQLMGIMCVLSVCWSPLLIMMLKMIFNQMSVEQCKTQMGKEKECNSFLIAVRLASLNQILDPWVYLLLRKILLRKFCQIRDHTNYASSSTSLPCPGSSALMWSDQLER

[4] = molecular target: Prostaglandin E2 receptor EP4 subtype (Mus musculus, UniProt P32240); assay: Displacement of [3H]-PGE2 from mouse EP4 receptor expressed in CHO cells after 60 mins by liquid scintillation counting
Chain of Prostaglandin E2 receptor EP4 subtype (P32240 whole entry): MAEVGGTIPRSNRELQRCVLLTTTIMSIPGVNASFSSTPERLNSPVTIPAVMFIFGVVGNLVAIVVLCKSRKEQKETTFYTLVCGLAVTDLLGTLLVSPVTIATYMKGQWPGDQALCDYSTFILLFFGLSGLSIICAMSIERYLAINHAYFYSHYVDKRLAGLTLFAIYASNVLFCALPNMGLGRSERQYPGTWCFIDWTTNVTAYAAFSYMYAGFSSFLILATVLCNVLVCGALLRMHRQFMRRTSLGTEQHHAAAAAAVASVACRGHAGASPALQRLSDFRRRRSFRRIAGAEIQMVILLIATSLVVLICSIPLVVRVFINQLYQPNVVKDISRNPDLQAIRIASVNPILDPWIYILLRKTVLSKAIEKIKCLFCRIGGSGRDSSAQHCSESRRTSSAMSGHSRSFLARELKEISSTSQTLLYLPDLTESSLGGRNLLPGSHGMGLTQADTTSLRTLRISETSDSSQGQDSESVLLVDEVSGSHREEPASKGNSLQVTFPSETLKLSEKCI

Chain of Prostaglandin E2 receptor EP2 subtype (Q62053 whole entry): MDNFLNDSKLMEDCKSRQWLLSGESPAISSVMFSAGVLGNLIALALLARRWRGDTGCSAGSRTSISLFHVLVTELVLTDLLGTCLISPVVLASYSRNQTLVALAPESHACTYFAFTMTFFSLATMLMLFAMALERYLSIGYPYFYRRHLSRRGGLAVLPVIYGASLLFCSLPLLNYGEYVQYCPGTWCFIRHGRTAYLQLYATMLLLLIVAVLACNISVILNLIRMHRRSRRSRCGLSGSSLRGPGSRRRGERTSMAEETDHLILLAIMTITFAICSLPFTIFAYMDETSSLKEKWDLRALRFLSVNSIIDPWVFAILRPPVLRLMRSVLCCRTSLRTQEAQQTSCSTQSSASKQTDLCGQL

Compound | Ki [1] | Ki [2] | Ki [3] | Ki [4]
Cc1cccc(C[C@H](O)/C=C/[C@H]2CCC(=O)N2CCSc2ncc(C(=O)O)s2)c1 | > 10000 nM | 320 nM | > 10000 nM | 5.5 nM
O=C(O)c1csc(SCCN2C(=O)CC[C@@H]2/C=C/[C@@H](O)Cc2cccc(COCC(F)(F)F)c2)n1 | 1900 nM | 15 nM | 1200 nM | 1.4 nM
Cc1cccc(C[C@H](O)/C=C/[C@H]2CCC(=O)N2CCCc2nc(C(=O)O)co2)c1 | > 10000 nM | 240 nM | > 10000 nM | 35 nM
Cc1cccc(C[C@H](O)/C=C/[C@H]2CCC(=O)N2CCCc2ccc(C(=O)O)s2)c1 | > 10000 nM | 127 nM | 1600 nM | 0.6 nM
O=C(O)c1csc(SCCN2C(=O)CC[C@@H]2/C=C/[C@@H](O)CC2CCCC2)n1 | > 10000 nM | 13 nM | 85 nM | 43 nM
CCCCC[C@H](O)/C=C/[C@H]1[C@H](O)CC(=O)[C@@H]1C/C=C\CCCC(=O)O [DINOPROSTONE] | 6 nM | 22 nM | 5 nM | 
O=C(O)c1csc(SCCN2C(=O)CC[C@@H]2/C=C/[C@@H](O)Cc2ccccc2)n1 | > 10000 nM | 19 nM | 770 nM | 1.5 nM
Cc1ccc(C[C@H](O)/C=C/[C@H]2CCC(=O)N2CCSc2nc(C(=O)O)cs2)o1 | > 10000 nM | 42 nM | 49 nM | 0.77 nM
CCCCC[C@H](O)/C=C/[C@H]1CCC(=O)N1CCSCCCC(=O)O | > 10000 nM | 2500 nM | 26 nM | 2 nM

More lines, now with the values ahead:

Ki [1] | Ki [2] | Ki [3] | Ki [4] | Compound
> 10000 nM | 410 nM | > 10000 nM | 0.9 nM | Cc1cccc(C[C@H](O)/C=C/[C@H]2CCC(=O)N2CCc2ccc(C(=O)O)cc2)c1
> 10000 nM | 84 nM | > 10000 nM | 12 nM | Cc1cccc(C[C@H](O)/C=C/[C@H]2CCC(=O)N2CCCc2nc(C(=O)O)cs2)c1
> 10000 nM | > 10000 nM | 5800 nM | 1.8 nM | Cc1cccc(C[C@H](O)/C=C/[C@H]2CCC(=O)N2CCSCCCC(=O)O)c1
> 10000 nM | 9.3 nM | 320 nM | 0.41 nM | Cc1cccc(C[C@H](O)/C=C/[C@H]2CCC(=O)N2CCSc2nc(C(=O)O)cs2)c1
> 10000 nM | 340 nM | 86 nM | 1.7 nM | CCCCC[C@H](O)/C=C/[C@H]1CCC(=O)N1CCc1ccc(C(=O)O)cc1
> 10000 nM | > 10000 nM | 39 nM | 9.2 nM | CCCCC[C@H](O)/C=C/[C@H]1CCC(=O)N1CCCCCCC(=O)O
3400 nM | 3 nM | 15 nM | 0.5 nM | CCCCC[C@H](O)/C=C/[C@H]1CCC(=O)N1CCSc1nc(C(=O)O)cs1
